Data on seven molecules can be found in patent US20210322404A1, “FGFR REGULATION FOR THE TREATMENT OF VIRAL INFECTIONS” (ETH ZURICH, priority 2016, published 2021).

One experiment deals with HSV-1. Kind of experiment: HSV-1 infection of HaCaT cells, virus load. It counts as cell-based, Herpes Simplex Virus type 1. Conditions: HaCaT; for amount and size of Glyc-D-positive fused cells (immunofluorescence): HSV-1; for amount and size of Glyc-D-positive fused cells (immunofluorescence) / Glyc-B DNA levels (viral load, qPCR relative to human β-actin gene): NSC23766 20 μM, AZD4547 1 μM; for Glyc-B DNA levels (viral load, qPCR relative to human β-actin gene): HSV-1 MOI=0.5, +/- FGF7 10 ng/ml, BGJ398 3.5 μM. As to the method:
FIGS. 5A-C relate to HaCaT cells infected with HSV-1 (MOI=0.5) after overnight serum starvation, either alone or in combination with FGF7 (10 ng/ml) or IFNα (1000U/ml). 24 h after infection, virus load was determined by qPCR for the HSV-1 Glycoprotein B (Glyc-B) gene relative to the human β-actin gene (A) or visualized by immunofluorescence staining for HSV-1 Glycoprotein D (Glyc-D) (red) (B). The Glyc-B/β-actin gene ratio in HSV-1 infected cells was set to 1. Cell nuclei were stained with DAPI (blue). Magnification bar: 200 μm. (C) Transmission microscopy images of HaCaT cells taken 48 h after HSV-1 infection. […] Magnification bar: 80 μm. Representative data out of four experiments are shown.
FIGS. 5 D & E relate to overnight-starved HaCaT cells infected with HSV-1 (MOI=0.5) alone or in combination with IFNα (1000 U/ml), IFNα and FGF7 (10 ng/ml) (D); or FGF7 at different concentrations (E).
FIG. 5F pertains to serum-starved HaCaT cells that were infected with HSV-1 (MOI 0.5-1). After 4 h, infected cells were washed with PBS, followed by addition of fresh serum-free culture medium containing FGF7 (10 ng/ml).
FIGS. 5G-K pertains to overnight-starved HaCaT cells infected with HSV-1 (MOI=0.5) alone or in combination with FGF7, which was added at the indicated time points. 12 h after infection, cells were analyzed for Glyc-B DNA (H) and, RSAD2 and IRF7 mRNA levels by qPCR/qRT-PCR (I) or for ISG protein levels by western blotting (K). Vinculin was used as loading control.
FIGS. 7A-C relate to serum-starved HaCaT cells that were infected with HSV-1 in the presence or absence of FGF7 (10 ng/ml), NSC23766 (20 μM), the FGFR kinase inhibitors AZD4547 (1 μM) and BGJ398 (3.5 μM) (A) or IFNα (1000 U/ml) (B). […] Magnification bar: 500 μm. The Glyc-D positive area was quantified using digital pixel measurements (C, right). A representative out of two experiments is shown.
Frozen sections from mouse back skin were fixed with cold methanol, and unspecific binding sites were blocked with PBS/2% bovine serum albumin (BSA) (Sigma)/1% fish skin gelatin (Sigma)/0.05% Triton X-100 (Carl Roth GmbH, Karlsruhe, Germany) for 2 h at room temperature. Samples were then incubated overnight at 4° C. with anti-IRF7 or anti-K14 antibodies diluted in the same buffer. After three washes with 1×PBS/0.1% Tween 20 (Carl Roth GmbH), slides were incubated at room temperature (RT) for 4 h with secondary antibodies (AF555-conjugated anti-rabbit IgG and AF488-conjugated anti-mouse IgG) and DAPI (4′,6-diamidino-2-phenylindole dihydrochloride) (Sigma) as counter-stain, washed again and mounted with Mowiol (Hoechst, Frankfurt, Germany). Stained sections were photographed with a Leica SP1-2 confocal microscope equipped with a 63×0.6-1.32 NA (Iris) PL Apo Oil objective. For data acquisition the Leica Confocal Software (Leica, Wetzlar, Germany) was used. For immunofluorescence staining of cultured cells, they were washed with PBS and either fixed for 5 min with cold methanol for staining with antibodies against ZO-1 and IRF7, or with 4% paraformaldehyde (PFA) (Sigma) for 20 min at RT for Glyc-D staining. PFA-fixed cells were then incubated for 10 min with 0.5% Triton X-100 in PBS. After 1 h blocking in PBS containing 2% BSA, cells were stained with the primary antibodies for 1 h in the same blocking buffer. After three washes with PBS, cells were incubated with the secondary antibodies (AF555-conjugated anti-mouse IgG, AF488-conjugated anti-mouse IgG and AF555-conjugated anti-rabbit IgG) and DAPI.
A general note: Quantitative PCR measures a nucleic acid by following its amplification.

Experiment [1] concerns interferon-stimulated genes (ISGs). Kind of experiment: ISG expression in primary mouse keratinocytes pre-incubated with inhibitors, then treated with FGF7 (qRT-PCR). It counts as cell-based. Conditions: primary keratinocytes from wild-type mice; inhibitor 3 h (SB203580 5 μM, NSC23766 50 μM, AZD4547 1 μM), then FGF7 10 ng/ml 6 h.
A further experiment relates to HCV. The note with it: hepatic / hepatoma cells, Van et al.; cited from earlier work.
Experiment [2] relates to interferon-stimulated response element (ISRE). The experiment is described as follows: ISRE luciferase reporter assay in immortalized mouse keratinocytes. In kind it is cell-based. Conditions: FGF7 10 ng/ml and/or IFNα 1000 U/ml, 12 h. As to the method: FIG. 3C pertains to immortalized mouse keratinocytes that were co-transfected with TK-Renilla and pGL4.45[luc2P/ISRE/Hygro] plasmids, starved in serum-free medium and then treated with FGF7 (10 ng/ml) and/or IFNα (1000 U/ml) for 12 h. Firefly luciferase activity was determined in cell lysates and normalized to Renilla luciferase activity (transfection control). The mean value in vehicle-treated cells (CTRL) was set to 1.
Mouse keratinocytes and HEK 293 cells were transfected with the expression vector for TK-Renilla and the expression vector pGL4.45[luc2P/ISRE/Hygro] (Promega). The latter contains five copies of an ISRE that drives expression of the luciferase reporter gene. Cells were seeded into 12-well plates, cultured for 24 h, and transfected using Lipofectamine 2000 […]. They were then starved in serum-free medium, treated with FGF7 (10 ng/ml) and/or IFNα (1000 U/ml) for 12 h, lysed and analyzed using a dual-luciferase assay system (Promega) as described by the manufacturer. Relative light units were measured in a GloMax 96 microplate luminometer with dual injectors (Promega).
(In general: A reporter such as luciferase makes a cellular process visible.)

The next experiment has as its system LCMV. It counts as cell-based, Lymphocytic Choriomeningitis Virus. The note with it: HaCaT, LCMV MOI 0.05 or 0.2.
Experiment [3] relates to interferon-stimulated genes (ISGs). Kind of experiment: ISG expression in human keratinocytes (HaCaT, primary foreskin) treated with FGF7, FGF10 and/or IFNα (qRT-PCR). It counts as cell-based. Conditions: HaCaT, 10 ng/ml, 6 h. The method, then: FIG. 2F relates to serum-starved immortalized human keratinocytes (HaCaT cell line) that were treated for 6 h with FGF7, FGF10 (both 10 ng/ml) or vehicle (CTRL). RNA was analyzed by qRT-PCR for the expression of the indicated ISGs relative to RPLP0. Mean expression levels in CTRL cells were set to 1. Representative data from three experiments are shown. Scatter plot and mean values are shown in (A-D). Each dot represents a biological replicate.
FIGS. 3E and F pertain to confluent human primary foreskin keratinocytes and (E) or HaCaT cells (F) that were serum-starved for 24 h and treated with FGF7 (10 ng/ml) and/or IFNα (500 U/ml) for 16 h. Cells were analyzed for ISG mRNA levels by qRT-PCR relative to RPLP0. Mean expression levels in vehicle-treated (CTRL) cells were set to 1.
The human HaCaT keratinocyte cell line was cultured in DMEM (Sigma) supplemented with 10% FCS (Thermo Fisher). […]
Total RNA from isolated epidermis of mice or from total skin was purified with Trizol, followed by additional purification with the RNeasy Mini Kit, including on-column DNase treatment (Qiagen, Hilden, Germany). […] Relative gene expression was determined using the Roche LightCycler 480 SYBR Green system (Roche, Rotkreuz, Switzerland).

Entries after “also recorded” stand apart in the source; their conditions may differ.

For `CCN(CC)CCCC(C)Nc1nc(C)cc(Nc2ccc3nc(C)cc(N)c3c2)n1` (racemic) [NSC23766, 6-N-[2-[5-(diethylamino)pentan-2-ylamino]-6-methylpyrimidin-4-yl]-2-methylquinoline-4,6-diamine, reference compound], in the experiment on HSV-1, the “amount and size of Glyc-D-positive fused cells (immunofluorescence)” value was “strongly reduced the amount of Glyc-D-positive fused cells”; the “Glyc-B DNA levels (viral load, qPCR relative to human β-actin gene)” value was “strongly reduced”. Moreover, the “FGF7-mediated ISG downregulation (ISG mRNA relative to Rps29)” value in experiment [1] is given as “partially or even completely rescued the FGF7-mediated ISG downregulation”.
On the same counts, the results for `COc1cc(CCc2cc(NC(=O)c3ccc(N4C[C@@H](C)N[C@@H](C)C4)cc3)n[nH]2)cc(OC)c1` [AZD4547, N-[5-[2-(3,5-dimethoxyphenyl)ethyl]-1H-pyrazol-3-yl]-4-[(3R,5S)-3,5-dimethylpiperazin-1-yl]benzamide, reference compound] are “strongly reduced the amount of Glyc-D-positive fused cells”, “inhibited the positive effect of FGF7 on viral replication” and “The same effect was observed”.
For `CCN1CCN(c2ccc(Nc3cc(N(C)C(=O)Nc4c(Cl)c(OC)cc(OC)c4Cl)ncn3)cc2)CC1` [BGJ398, 3-(2,6-dichloro-3,5-dimethoxyphenyl)-1-[6-[4-(4-ethylpiperazin-1-yl)anilino]pyrimidin-4-yl]-1-methylurea, reference compound], the “Glyc-B DNA levels (viral load, qPCR relative to human β-actin gene)” value in the experiment with HSV-1 is listed as “inhibited the positive effect of FGF7 on viral replication”.
On to “FGF1: member of the FGF family that binds to all FGFRs”, for which the HCV replication result in the experiment on HCV is listed as “does not enhance HCV replication”.
On to FGF2: fibroblast growth factor-2, for which, in the experiment on HCV, the HCV replication entry was “promoted hepatitis C RNA replication and production of novel particles; also recorded: enhanced viral replication and new particle production, but not infection with the virus”.
Regarding IFNα, the “appearance of HSV-1 infected cells (transmission microscopy)” value in the experiment with HSV-1 (48 h after infection) is reported as “almost indistinguishable from non-infected cells”. Further, the “viral glycoprotein B (Glyc-B) DNA” value in the experiment with HSV-1 (HSV-1 MOI=0.5, FGF7 10 ng/ml or IFNα 1000 U/ml) is “had the opposite effect”. Besides, the ISRE-driven luciferase activity entry in experiment [2] is “significant increase in luciferase activity”. In addition, the “expression levels of LCMV nucleoprotein (NP) / viral replication” value in the experiment with LCMV was “blocked the viral replication”.

B1: FGF10: recombinant human FGF10, activates FGFR2b and FGFR1b (protein, UniProt O15520 38-208, looked up)
Fibroblast growth factor 10: QALGQDMVSPEATNSSSSSFSSPSSAGRHVRSYNHLQGDVRWRKLFSFTKYFLKIEKNGKVSGTKKENCPYSILEITSVEIGVVAVKAINSNYYLAMNKKGKLYGSKEFNNDCKLKERIEENGYNTYASFNWQHNGRQMYVALNGKGAPRRGQKTRRKNTSAHFLPMVVHS
Regarding B1, in experiment [3], the “ISG expression (qRT-PCR relative to RPLP0)” value is listed as “suppressed ISG expression to a similar extent as FGF7”.
